Laboratory results from US20170239212A1, “[…] AND USE THEREOF AS ANTIVIRAL AGENTS” (priority 2014, published 2017).

Tests used:
[1] = tested on: K-562 human myelocytic leukemia cell line; experiment: Proliferation of K-562 cells; format: cell-based; conditions: maximally effective concentration, 72 hours, vs DMSO control
Description: K562 cells were counted after 3 day treatment with different concentrations of PMA (0.1, 1, 10, 100, 1000 nM), bryostatin 1 (0.1, 1, 10, 100, 1000 nM), the bryologues MERLE 21, 22, or 23 (1, 10, 100, 1000, 5000 nM) or DMSO as control. The number of cells is presented as % of the DMSO-treated control. Data represent the means±SEM of three independent experiments.
K-562 cells, from the Biological Testing Branch, National Cancer Institute, NIH (Frederick, Md.), were grown under usual conditions in RPMI-1640, supplemented with 10% fetal bovine serum. 72 hours after treatment with different drugs or DMSO the cell number was determined using a Beckman particle counter (Beckman Coulter Inc., Fullerton, Calif.).

[2] = tested on: human osteosarcoma (HOS) cells; experiment: HOS cell viability (CellTiter-Glo, cellular ATP); format: cell-based; design: unit not given here; conditions: knock down of cellular ATP
Description: (§1) Specifically, EC50 and CC50 values were determined in parallel using 10 concentrations of compound from 3 fold serial dilutions starting a 5 uM as the highest concentration. Cells and media were added to compounds with a final concentration of DMSO of 1% and incubated at 37° C., 5% CO2 for 24, 48 and 72 hours. EC50 was measured by induced luciferase activity detected by the use of the Steady-Glo® Luciferase reagent (PROMEGA) with an EnVision (Perkin-Elmer) plate reader. CC50 was determined by the dose dependent knock down of cellular ATP detected by the use of CellTiter-Glo® Luminescent Cell Viability reagent (PROMEGA) with an EnVision (Perkin-Elmer) plate reader.

cFos = experiment: Induction of cFos in LNCaP cells (western blot); format: cell-based, human; conditions: 2, 5 or 8 hrs treatment
Description: FIGS. 14A-14C show the induction of cFos and phosphorylation of PKC6 at Y311 in LNCaP cells. […] The proteins from the lysates were separated by 10% SDS-PAGE, electroblotted to nitrocellulose membranes and probed with anti-cFos primary and anti-rabbit secondary antibodies, followed by ECL visualization. Data are representative of four independent experiments. […] The cFos signal was normalized to the 3-actin signal to correct for loading and the response induced by 100 nM PMA at 2 hrs was taken as 100%. Data represent the means±SEM of four independent experiments. […] Data represent the means±SEM of three independent experiments.
LNCaP cells treated for 48 hours with the different drugs or with DMSO as control were washed and re-suspended in phosphate buffered saline. Yo-Pro-1 (Invitrogen, Carlsbad, Calif.) was added to a final concentration of 1 μM and the cells were incubated for 20 min at 4° C. in the dark. 7-Aminoactinomycin D (7-AAD) (Invitrogen, Carlsbad, Calif.) was then added at a 5 μg/mL final concentration 10 minutes before analysis by flow cytometry using the FACSCalibur system (Becton Dickinson, Mountain View, Calif.). Data were analyzed with FlowJo 7 (Tree Star Inc., Ashland, Oreg.). The Yo-Pro-1 positive cells were considered apoptotic and were expressed as % of total cells. […]

[3] = tested on: HIV long terminal repeat (LTR) promoter; experiment: HOS LTR stimulation assay (luciferase reporter); format: cell-based
Description: In the assay, non T cell derived human osteosarcoma (HOS) cells are transfected with a luciferase reporter under control of an HIV long terminal repeat (LTR) promoter. Compounds that stimulate the HIV LTR promoter will produce luciferase in a dose dependent manner.
as §1
The error bars represent the average and the standard error of the mean of at least three independent experiments.

[4] = tested on: LNCaP human prostate cancer cells; experiment: Proliferation and morphology of LNCaP cells (Incucyte confluency imaging); format: cell-based; conditions: for Persistence of early morphological change (cell flattening) in LNCaP cells: Incucyte images, 0-9 hrs after treatment
Description: FIGS. 12A-12D show the effect of different compounds on the proliferation and apoptosis of LNCaP cells. […] Time-elapsed images were taken with an Incucyte imaging system every hour for 4 days. The proliferation of LNCaP cells is presented as increase in confluency (read by the instrument) at 80 hrs. Data represent the means±SEM of three independent experiments. […] Apoptosis was measured 2 days after treatment by flow cytometry using 7-AAD and Yo-Pro-1 as described in Materials and Methods. Data represent the means±SEM of three independent experiments.
FIGS. 13A and 13B show the proliferation and morphology of LNCaP cells detected by Incucyte. LNCaP cells were treated with DMSO as control, 300 nM PMA, 1000 nM bryostatin 1 or the bryologue MERLE 21, or with 300 nM PMA in combination with 1000 nM bryostatin 1 or the bryologue MERLE 21. Time-elapsed images were taken by the Incucyte imaging system every hour. […] The arrow indicates the time of treatment. Data are representative of three independent experiments.
The extent of confluency of LNCaP cells (from ATCC, Manassas, Va.) and the morphological changes after treatment were followed in real time using Incucyte (Essen Instruments, Ann Arbor, Mich.). Images of LNCaP cells plated into 24 well plates were taken every 1 hour by the instrument before and after treatment for a total of 4 days. The confluency of the cells was calculated by the instrument's program. The proliferation of LNCaP cells was expressed as the difference in cell confluency before and after treatment.

Jurkat cell line = experiment: in vitro; format: cell-based; conditions: Jurkat cells, knock down of cellular ATP
Description: as §1, with “The compounds were also tested in the T cell derived Jurkat cell line transfected with a luciferase reporter under control of an HIV long terminal repeat (LTR) promoter. Specifically,” for “Specifically,”

[5] = target: HIV long terminal repeat (LTR) promoter; experiment: in vitro; format: cell-based; conditions: Jurkat cells
Description: as §1, with “The compounds were also tested in the T cell derived Jurkat cell line transfected with a luciferase reporter under control of an HIV long terminal repeat (LTR) promoter. Specifically,” for “Specifically,”

| Compound | Maximal inhibition of K-562 cell growth [1] [%] | CCEC50 [2] | Time course of cFos induction in LNCaP cells (cFos) | Max signal (% of control) ([3]; HOS cells, LTR-luciferase signal) | Conc (uM) at Max ([3]; HOS cells, concentration at maximal LTR-luciferase signal) [µM] | EC50 ([3]; Human immunodeficiency virus 1, HOS) [nM] | Block of PMA inhibition of LNCaP cell growth ([4]; 300 nM PMA combined with 1000 nM compound, 80 hrs) | Persistence of early morphological change (cell flattening) in LNCaP cells [4] | Effect on LNCaP cell growth ([4]; compound alone, confluency at 80 hrs) | CC50 (Jurkat cell line) [nM] | EC50 ([5]; LTR-luciferase, incubated 24, 48 and 72 hours (time of the listed values not stated)) [nM] | Selectivity (CC50:EC50) ([5]; ratio of the CC50 to the EC50) |
| --- | --- | --- | --- | --- | --- | --- | --- | --- | --- | --- | --- | --- |
| CCC/C=C/C=C/C(=O)O[C@H]1/C(=C/C(=O)OC)C[C@H]2C[C@H]([C@@H](C)O)OC(=O)C[C@H](O)C[C@@H]3C[C@H](OC(C)=O)C(C)(C)[C@](O)(C[C@@H]4C/C(=C/C(=O)OC)C[C@H](/C=C/C(C)(C)[C@]1(O)O2)O4)O3 [Bryostatin 1] | 31.8±9.2 | >5 | largely lost by 5 hrs | 157 % of control | 2.51 | 2 | blocked the inhibition of LNCaP cell growth by PMA | had reversed by 6 hrs after treatment | induced a low level of inhibition of cell growth |  |  |  |
| CCCCCCCCCCCCCC(=O)O[C@@H]1[C@@H](C)[C@@]2(O)[C@@H](C=C(CO)C[C@]3(O)C(=O)C(C)=C[C@@H]23)[C@@H]2C(C)(C)[C@]12OC(C)=O [PMA, phorbol 12-myristate 13-acetate] |  |  | persisted for 5 hrs, with weak induction still evident at 8 hrs |  |  |  |  | still evident at 6 hrs but reversing by 9 hrs |  | 0.1 | 0.1 | 1 |
